# In US20170311606A1, “SYNERGISTIC BACILLUS THURINGIENSIS SUBSP. KURSTAKI AND FLUBENDIAMIDE MIXTURES FOR BEET ARMYWORM, SOYBEAN LOOPER, CORN EARWORM, AND CABBAGE LOOPER CONTROL” (priority 2016, published 2017):
# Like-named read-outs stand apart in the source and are kept apart here.
# Assays:
# diamondback moth larvae = assay: Leaf dip bioassay, diamondback moth larvae; format: in vivo; details: Plutella xylostella, foliar, Btk 0.54 ppm, flubendiamide 0.215 ppm, alone or mixed, read-out: % Efficacy
# beet armyworm larvae = assay: Leaf dip bioassay, beet armyworm larvae; format: in vivo; details: Spodoptera exigua, foliar, alone or mixed, read-out: % Efficacy
# Procedure: (§1) The present invention is not limited to the products or formulation types used herein. In each example below, the studies were conducted as follows.
# (§2) For these tests, standardized laboratory leaf dip methods were used to inoculate plant material with treatment(s). Dry, treated leaves were placed into Petri dishes (100×25 mm) containing filter paper wetted with 500 μl of distilled H2O (“dH2O”). Each dish was then infested with between 5 and 10 larvae, dependent on species. Efficacy ratings were taken at specified intervals. Synergy ratings were calculated for each test.
# (§3) % Cexp=A+B−(AB/100), where % Cexp is the expected efficacy and “in which A and B are the control levels given by the single [insecticides]. […] Adopting a conservative approach, Applicant determined synergy to be present at ratios of >1.15.
# cabbage looper larvae = assay: Leaf dip bioassay, cabbage looper larvae; format: in vivo; details: Trichoplusia ni, foliar, Btk 0.54 ppm, flubendiamide 0.49 ppm, alone or mixed, read-out: % Efficacy
# Procedure: as §1, §2, §3
# sugarcane borer larvae = assay: Leaf dip bioassay, sugarcane borer larvae; format: in vivo; details: foliar, Btk 0.54 ppm, flubendiamide 2.15 ppm, alone or mixed, read-out: % Efficacy
# Procedure: as §1, §2, §3
# [1] = test system: southwestern corn borer larvae; assay: Leaf dip bioassay, southwestern corn borer larvae; format: in vivo; details: foliar, Btk 0.54 ppm, flubendiamide 0.215 ppm, alone or mixed, read-out: % Efficacy
# Procedure: as §1, §2, §3
# soybean looper larvae = assay: Leaf dip bioassay, soybean looper larvae; format: in vivo, Chrysodeixis includens; details: foliar, Btk 0.54 ppm, flubendiamide 3.9 ppm, alone or mixed, read-out: % Efficacy
# Procedure: as §1, §2, §3
# corn earworm larvae = assay: Leaf dip bioassay, corn earworm larvae; format: in vivo; details: Helicoverpa zea, foliar, Btk 0.54 ppm, flubendiamide 0.975 ppm, alone or mixed, read-out: % Efficacy
# Procedure: as §1, §2, §3
smiles,measurement,setting,value
"Cc1cc(C(F)(C(F)(F)F)C(F)(F)F)ccc1NC(=O)c1cccc(I)c1C(=O)NC(C)(C)CS(C)(=O)=O [Flubendiamide, 3-iodo-N′-(2-mesyl-1,1-dimethylethyl)-N-{4-[1,2,2,2-tetrafluoro-1-(trifluoromethyl)ethyl]-o-tolyl}phthalamide]",Emax at 0.215 ppm,diamondback moth larvae; 24 h after treatment,7%
same,Emax at 0.215 ppm,diamondback moth larvae; 48 h after treatment,19%
same,Emax at 0.49 ppm,beet armyworm larvae; 24 h after treatment,6%
same,Emax at 0.49 ppm,beet armyworm larvae; 48 h after treatment,14%
same,Emax at 0.49 ppm,cabbage looper larvae; 24 h after treatment,7%
same,Emax at 0.49 ppm,cabbage looper larvae; 48 h after treatment,19%
same,Emax at 2.15 ppm,sugarcane borer larvae; 24 h after treatment,28%
same,Emax at 2.15 ppm,sugarcane borer larvae; 48 h after treatment,40%
same,Emax at 0.215 ppm,[1]; 24 h after treatment,40%
same,Emax at 0.215 ppm,[1]; 48 h after treatment,48%
same,Emax at 3.9 ppm,soybean looper larvae; 24 h after treatment,4%
same,Emax at 3.9 ppm,soybean looper larvae; 48 h after treatment,16%
same,Emax at 0.975 ppm,corn earworm larvae; 24 h after treatment,14%
same,Emax at 0.975 ppm,corn earworm larvae; 48 h after treatment,24%
